According to patent publication US20260070945A1, “MACROCYCLIC IMMUNOMODULATORS” (Bristol-Myers Squibb Company, priority 2022, published 2026):
*1 amine or outer side, *2 acyl side, *3 side chain or, on linkers, in order; H or OH if unused. Where a SMILES comes first, the peptide text is derived from it. Bridges are numbered along the chain shown (N, C = ends). [ ]: non-standard residue; d: D form. The star is where a group is joined. ξ: configuration not given here. Phe(3-CF3) = N[C@@H](Cc1cccc(C(F)(F)F)c1)C(=O)O; Ala(morpholin-4-yl) = N[C@@H](CN1CCOCC1)C(=O)O; Phe(4-COOH) = N[C@@H](Cc1ccc(C(=O)O)cc1)C(=O)O; Bip = N[C@@H](Cc1ccc(-c2ccccc2)cc1)C(=O)O; NH(CH2)14COOH = O=C(O)CCCCCCCCCCCCCCN*; Phe(3-Me) = Cc1cccc(C[C@H](N)C(=O)O)c1; γGlu = O=C(O)[C@H](CCC(=O)[*:2])N[*:1]; Abu(3S-NH2) = C[C@H](N)[C@H](N)C(=O)O; NH(CH2)12COOH = O=C(O)CCCCCCCCCCCCN*; Val(3-OH) = CC(C)(O)[C@H](N)C(=O)O; 4Pal = N[C@@H](Cc1ccncc1)C(=O)O; Cha = N[C@@H](CC1CCCCC1)C(=O)O; Cit = NC(=O)NCCC[C@H](N)C(=O)O; Ile(3ξ) = CCC(C)[C@H](N)C(=O)O; Thr(3ξ) = CC(O)[C@H](N)C(=O)O; 12Ado = NCCCCCCCCCCCC(=O)O; Carboxymethyl = O=C(O)C*; NMeA = CN[C@@H](C)C(=O)O; Orn = NCCC[C@H](N)C(=O)O; Aun = NCCCCCCCCCCC(=O)O; Dab = NCC[C@H](N)C(=O)O; AEEA = NCCOCCOCC(=O)O

Target: T1, PD-1/PD-L1 interaction (PE-labeled human PD-L1-Ig binding to Jurkat cell line over-expressing human PD-1) (Homo sapiens, UniProt Q15116)
T1 construct: expressed in transfected cells; host or cells: Jurkat
T1 sequence (Q15116 25-288): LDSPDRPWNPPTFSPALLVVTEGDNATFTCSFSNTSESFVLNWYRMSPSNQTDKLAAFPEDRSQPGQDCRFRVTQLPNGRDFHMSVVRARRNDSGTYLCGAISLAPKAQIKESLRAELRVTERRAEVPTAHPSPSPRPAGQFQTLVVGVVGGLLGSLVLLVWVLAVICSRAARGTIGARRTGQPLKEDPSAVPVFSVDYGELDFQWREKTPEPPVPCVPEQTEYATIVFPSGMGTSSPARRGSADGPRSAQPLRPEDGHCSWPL
Experiment: Jurkat-PD-1 Cell Binding High-Content Screening Assay (CBA)
Conditions: Jurkat-hPD-1 cells, PE-labeled PD-L1-Ig 20 nM final; read-out: Jurkat HPD1 PDL1 IC50
In short: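 Binding of 20 nM (final) PE-tagged PD-L1-Ig to compound-pretreated Jurkat-hPD-1 cells was measured by high-content imaging after 1 h. Pretreatment ran 2 h at 37 °C in DMEM with 10% fetal calf serum.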

IC50 [nM] | Compound
30.2 | CC(C)C[C@H]1NC(=O)[C@H](C)N(C)C(=O)[C@H](Cc2ccc(OCC(=O)O)cc2)NC(=O)[C@H](Cc2ccc(-c3ccccc3)cc2)NC(=O)[C@H](Cc2ccc(C(=O)O)cc2)NC(=O)[C@H](Cc2cccc(C(F)(F)F)c2)NC(=O)[C@H](CC(=O)O)NC(=O)[C@H](Cc2ccc(OCC(=O)O)cc2)NC(=O)[C@H]([C@@H](C)O)NC(=O)CSC[C@@H](C(=O)N[C@@H](CCN)C(=O)NCCCCCCCCCCC(=O)O)NC(=O)[C@H]([C@@H](C)O)NC(=O)[C@H](C(C)C)NC(=O)[C@H](CC2CCCCC2)NC(=O)[C@H](CCN)NC1=O [Example 1231] ({CH2CO}-TY(Carboxymethyl)D[Phe(3-CF3)][Phe(4-COOH)][Bip]Y(Carboxymethyl)[NMeA][dL][Dab][Cha]VTC[Dab][Aun]-OH; thioether N-14)
38.2 | CC(=O)NCC[C@@H]1NC(=O)[C@H](C(C)(C)O)NC(=O)[C@H](CC2CCCCC2)NC(=O)[C@H](CCN)NC(=O)[C@@H](CC(C)C)NC(=O)[C@H](C)N(C)C(=O)[C@H](C(C)C)NC(=O)[C@H](Cc2ccc(-c3ccccc3)cc2)NC(=O)[C@H](CC(C)C)NC(=O)[C@H](Cc2c[nH]c3ccccc23)NC(=O)[C@H](CC(=O)O)NC(=O)[C@H](Cc2ccc(OCC(=O)O)cc2)NC(=O)[C@H](Cc2ccc(OCC(=O)O)cc2)NC(=O)CSC[C@@H](C(=O)NCCOCCOCC(=O)NCCCCCCCCCCC(=O)O)NC1=O [Example 2447] ({CH2CO}-Y(Carboxymethyl)Y(Carboxymethyl)DWL[Bip]V[NMeA][dL][Dab][Cha][Val(3-OH)][Dab](Ac)C[AEEA][Aun]-OH; thioether N-14)
11.3 | CC(C)C[C@@H]1NC(=O)[C@H](Cc2c[nH]c3ccccc23)NC(=O)[C@H](CC(=O)O)NC(=O)[C@H](Cc2ccncc2)NC(=O)[C@H](Cc2ccc(OCC(=O)O)cc2)NC(=O)CSC[C@@H](C(=O)N[C@@H](CCCNC(=N)N)C(=O)NCCOCCOCC(=O)NCCCCCCCCCCC(=O)O)NC(=O)[C@H](CO)NC(=O)[C@H](C(C)C)NC(=O)[C@H](CC2CCCCC2)NC(=O)[C@H](CCN)NC(=O)[C@@H](CC(C)C)NC(=O)[C@H](C)N(C)C(=O)[C@H](C(C)C)NC(=O)[C@H](Cc2ccc(-c3ccccc3)cc2)NC1=O [Example 1092] ({CH2CO}-Y(Carboxymethyl)[4Pal]DWL[Bip]V[NMeA][dL][Dab][Cha]VSCR[AEEA][Aun]-OH; thioether N-14)
111 | Cc1cccc(C[C@@H]2NC(=O)[C@H](CC(=O)O)NC(=O)[C@H](Cc3ccc(C(=O)O)cc3)NC(=O)[C@H](Cc3ccc(OCC(=O)O)cc3)NC(=O)CSC[C@@H](C(=O)NCCCCCCCCCCC(=O)O)NC(=O)[C@H](CO)NC(=O)[C@H](C(C)C)NC(=O)[C@H](CC(C)C)NC(=O)[C@H](CC(N)=O)NC(=O)[C@@H](CC(C)C)NC(=O)[C@H](C)N(C)C(=O)[C@H](C(C)C)NC(=O)[C@H](Cc3ccc(-c4ccccc4)cc3)NC(=O)[C@H](CC(C)C)NC2=O)c1 [Example 1007] ({CH2CO}-Y(Carboxymethyl)[Phe(4-COOH)]D[Phe(3-Me)]L[Bip]V[NMeA][dL]NLVSC[Aun]-OH; thioether N-14)
18.9 | CC(C)C[C@H]1NC(=O)[C@H](C)N(C)C(=O)[C@H](CCCNC(N)=O)NC(=O)[C@H](Cc2ccc(-c3ccccc3)cc2)NC(=O)[C@H](Cc2ccc(C(=O)O)cc2)NC(=O)[C@H](Cc2cccc(C(F)(F)F)c2)NC(=O)[C@H](CC(=O)O)NC(=O)[C@H](Cc2ccc(OCC(=O)O)cc2)NC(=O)[C@H]([C@H](C)N)NC(=O)CSC[C@@H](C(=O)N[C@@H](CCN)C(=O)NCCCCCCCCCCCCC(=O)O)NC(=O)[C@H](Cc2c[nH]cn2)NC(=O)[C@H](C(C)(C)O)NC(=O)[C@H](CC2CCCCC2)NC(=O)[C@H](CCN)NC1=O [Example 1197] ({CH2CO}-[Abu(3S-NH2)]Y(Carboxymethyl)D[Phe(3-CF3)][Phe(4-COOH)][Bip][Cit][NMeA][dL][Dab][Cha][Val(3-OH)]HC[Dab]-{NH(CH2)12COOH}; thioether N-14)
23.4 | CC(=O)NCCCC[C@@H]1NC(=O)[C@H](C(C)(C)O)NC(=O)[C@H](CC2CCCCC2)NC(=O)[C@H](CCN)NC(=O)[C@@H](CC(C)C)NC(=O)[C@H](C)N(C)C(=O)[C@H](CCC(N)=O)NC(=O)[C@H](Cc2ccc(-c3ccccc3)cc2)NC(=O)[C@H](Cc2ccc(C(=O)O)cc2)NC(=O)[C@H](Cc2cccc(C(F)(F)F)c2)NC(=O)[C@H](CC(=O)O)NC(=O)[C@H](Cc2ccc(OCC(=O)O)cc2)NC(=O)[C@H](CN2CCOCC2)NC(=O)CSC[C@@H](C(=O)N[C@@H](CCN)C(=O)NCCOCCOCC(=O)N[C@@H](CCC(=O)NCCOCCOCC(=O)NCCCCCCCCCCCCC(=O)O)C(=O)O)NC1=O [Example 1174] ({CH2CO}-[Ala(morpholin-4-yl)]Y(Carboxymethyl)D[Phe(3-CF3)][Phe(4-COOH)][Bip]Q[NMeA][dL][Dab][Cha][Val(3-OH)]K(Ac)C[Dab][AEEA][γGlu][AEEA]-{NH(CH2)12COOH}; thioether N-14)
32.3 | CCC(C)[C@@H]1NC(=O)[C@H](Cc2ccc(-c3ccccc3)cc2)NC(=O)[C@H](C(C)C)NC(=O)[C@H](Cc2c[nH]c3ccccc23)NC(=O)[C@H](CC(=O)O)NC(=O)[C@H](Cc2ccc(OCC(=O)O)cc2)NC(=O)[C@H](C(C)O)NC(=O)CSC[C@@H](C(=O)N[C@@H](CCCN)C(=O)N[C@@H](CCC(=O)NCCCCCCCCCCCC(=O)O)C(=O)O)NC(=O)[C@H](C(C)O)NC(=O)[C@H](C(C)C)NC(=O)[C@H](CC2CCCCC2)NC(=O)[C@H](CCN)NC(=O)[C@@H](CC(C)C)NC(=O)[C@H](C)N(C)C1=O (stereo partly drawn) [Example 2417] ({CH2CO}-[Thr(3ξ)]Y(Carboxymethyl)DWV[Bip][Ile(3ξ)][NMeA][dL][Dab][Cha]V[Thr(3ξ)]C[Orn][γGlu][12Ado]-OH; thioether N-14)
16 | CC(C)C[C@H]1NC(=O)[C@H](C)N(C)C(=O)[C@H](CCC(N)=O)NC(=O)[C@H](Cc2ccc(-c3ccccc3)cc2)NC(=O)[C@H](Cc2ccc(C(=O)O)cc2)NC(=O)[C@H](Cc2cccc(C(F)(F)F)c2)NC(=O)[C@H](CC(=O)O)NC(=O)[C@H](Cc2ccc(OCC(=O)O)cc2)NC(=O)[C@H](CN2CCOCC2)NC(=O)CSC[C@@H](C(=O)N[C@@H](CCN)C(=O)NCCCCCCCCCCCCC(=O)O)NC(=O)[C@H](CC(=O)O)NC(=O)[C@H](C(C)(C)O)NC(=O)[C@H](CC2CCCCC2)NC(=O)[C@H](CCN)NC1=O [Example 1150] ({CH2CO}-[Ala(morpholin-4-yl)]Y(Carboxymethyl)D[Phe(3-CF3)][Phe(4-COOH)][Bip]Q[NMeA][dL][Dab][Cha][Val(3-OH)]DC[Dab]-{NH(CH2)12COOH}; thioether N-14)
20.7 | Cc1cccc(C[C@@H]2NC(=O)[C@H](CC(=O)O)NC(=O)[C@H](Cc3ccc(OCC(=O)O)cc3)NC(=O)[C@H](C(C)O)NC(=O)CSC[C@@H](C(=O)N[C@@H](CCN)C(=O)NCCOCCOCC(=O)NCCOCCOCC(=O)NCCCCCCCCCCC(=O)O)NC(=O)[C@H](CCC(=O)O)NC(=O)[C@H](C(C)C)NC(=O)[C@H](CC3CCCCC3)NC(=O)[C@H](CCN)NC(=O)[C@@H](CC(C)C)NC(=O)[C@H](C)N(C)C(=O)[C@H](Cc3ccc(OCC(=O)O)cc3)NC(=O)[C@H](Cc3ccc(-c4ccccc4)cc3)NC(=O)[C@H](Cc3ccc(C(=O)O)cc3)NC2=O)c1 (stereo partly drawn) [Example 2482] ({CH2CO}-[Thr(3ξ)]Y(Carboxymethyl)D[Phe(3-Me)][Phe(4-COOH)][Bip]Y(Carboxymethyl)[NMeA][dL][Dab][Cha]VEC[Dab][AEEA][AEEA][Aun]-OH; thioether N-14)
10.9 | CC(=O)NCCCC[C@@H]1NC(=O)[C@H](Cc2ccc(-c3ccccc3)cc2)NC(=O)[C@H](CC(C)C)NC(=O)[C@H](Cc2cccc(C)c2)NC(=O)[C@H](CC(=O)O)NC(=O)[C@H](Cc2ccc(OCC(=O)O)cc2)NC(=O)[C@H](Cc2ccc(OCC(=O)O)cc2)NC(=O)CSC[C@@H](C(=O)NCCOCCOCC(=O)NCCCCCCCCCCC(=O)O)NC(=O)[C@H](CCCCN)NC(=O)[C@H](C(C)C)NC(=O)[C@H](CC2CCCCC2)NC(=O)[C@H](CCN)NC(=O)[C@@H](CC(C)C)NC(=O)[C@H](C)N(C)C1=O [Example 2223] ({CH2CO}-Y(Carboxymethyl)Y(Carboxymethyl)D[Phe(3-Me)]L[Bip]K(Ac)[NMeA][dL][Dab][Cha]VKC[AEEA][Aun]-OH; thioether N-14)

Same assay, conditions: PE-labeled PD-L1-Ig 20 nM final, Jurkat-hPD-1 cells; read-out: Jurkat HPD1 PDL1 IC50

IC50 [nM] | Compound
4.8 | Cc1cccc(C[C@@H]2NC(=O)[C@H](CC(=O)O)NC(=O)[C@H](Cc3ccc(OCC(=O)O)cc3)NC(=O)[C@H](C(C)O)NC(=O)CSC[C@@H](C(=O)N[C@@H](CCN)C(=O)NCCOCCOCC(=O)NCCCCCCCCCCC(=O)O)NC(=O)[C@H](CCC(=O)O)NC(=O)[C@H](C(C)C)NC(=O)[C@H](CC3CCCCC3)NC(=O)[C@H](CCN)NC(=O)[C@@H](CC(C)C)NC(=O)[C@H](C)N(C)C(=O)[C@H](Cc3ccc(C(=O)O)cc3)NC(=O)[C@H](Cc3ccc(-c4ccccc4)cc3)NC(=O)[C@H](Cc3ccc(C(=O)O)cc3)NC2=O)c1 (stereo partly drawn) [Example 2553] ({CH2CO}-[Thr(3ξ)]Y(Carboxymethyl)D[Phe(3-Me)][Phe(4-COOH)][Bip][Phe(4-COOH)][NMeA][dL][Dab][Cha]VEC[Dab][AEEA][Aun]-OH; thioether N-14)
383 | CC(C)C[C@H]1NC(=O)[C@H](C)N(C)C(=O)[C@H](Cc2ccc(C(=O)O)cc2)NC(=O)[C@H](Cc2ccc(-c3ccccc3)cc2)NC(=O)[C@H](Cc2ccc(C(=O)O)cc2)NC(=O)[C@H](Cc2cccc(C(F)(F)F)c2)NC(=O)[C@H](CC(=O)O)NC(=O)[C@H](Cc2ccc(C(=O)O)cc2)NC(=O)[C@H](C(C)O)NC(=O)CSC[C@@H](C(=O)N[C@@H](CCN)C(=O)NCCOCCOCC(=O)NCCOCCOCC(=O)NCCCCCCCCCCCCCCC(=O)O)NC(=O)[C@H](CCC(=O)O)NC(=O)[C@H](C(C)C)NC(=O)[C@H](CC2CCCCC2)NC(=O)[C@H](CCN)NC1=O (stereo partly drawn) [Example 2613] ({CH2CO}-[Thr(3ξ)][Phe(4-COOH)]D[Phe(3-CF3)][Phe(4-COOH)][Bip][Phe(4-COOH)][NMeA][dL][Dab][Cha]VEC[Dab][AEEA][AEEA]-{NH(CH2)14COOH}; thioether N-14)
